PubChem BioAssay (NCI)
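Protocol summary: plate cells (96-well), add compound at 5 concentrations, incubate 48 h, interpolate endpoints linearly. The concentration for 50% growth inhibition is given as GI50. TGI: total growth inhibition.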

Key:
Experiment in all cases: DTP human tumour cell line panel, 48 h
A498 renal = system: A498 renal
COLO 205 colon = system: COLO 205 colon
EKVX NSCLC = system: EKVX NSCLC
KM12 colon = system: KM12 colon
LOX IMVI melanoma = system: LOX IMVI melanoma
MOLT-4 leukemia = system: MOLT-4 leukemia
NCI-H23 lung = system: NCI-H23 lung
RXF 393 renal = system: RXF 393 renal
SF-268 CNS = system: SF-268 CNS
RPMI-8226 leukemia = system: RPMI-8226 leukemia

Row | Compound | GI50 (A498 renal) | TGI (A498 renal) | GI50 (COLO 205 colon) | TGI (COLO 205 colon) | GI50 (EKVX NSCLC) | TGI (EKVX NSCLC) | GI50 (KM12 colon) | TGI (KM12 colon) | GI50 (LOX IMVI melanoma) | TGI (LOX IMVI melanoma) | GI50 (MOLT-4 leukemia) | TGI (MOLT-4 leukemia) | GI50 (NCI-H23 lung) | TGI (NCI-H23 lung) | GI50 (RXF 393 renal) | TGI (RXF 393 renal) | GI50 (SF-268 CNS) | TGI (SF-268 CNS) | GI50 (RPMI-8226 leukemia) | TGI (RPMI-8226 leukemia)
1 | COc1cc(C)cc2c1OC(c1ccccc1)CC2=O (centres undefined) | > 100 µM | > 100 µM | > 100 µM | > 100 µM | > 100 µM | > 100 µM | > 100 µM | > 100 µM | > 100 µM | > 100 µM | > 100 µM | > 100 µM | > 100 µM | > 100 µM | > 100 µM | > 100 µM | > 100 µM | > 100 µM |  | 
2 | CCCCCC(=O)N1c2ccccc2NC2=C(C(=O)CC(c3ccc(OC)c(OC)c3)C2)C1c1ccc(C(F)(F)F)cc1 (centres undefined) |  |  | > 100 µM | > 100 µM |  |  | > 100 µM | > 100 µM | > 100 µM | > 100 µM | 8.9 µM | > 100 µM | > 100 µM | > 100 µM | 37.6 µM | > 100 µM | > 100 µM | > 100 µM | 5.98 µM | > 100 µM
3 | N#Cc1nc(-c2cccc(Br)c2)cc(-c2ccc(Nc3nc(N4CCCCC4)nc(N4CCCCC4)n3)cc2)c1N |  |  | 1.99 µM | 4.64 µM | 2.12 µM | 5.02 µM | 1.91 µM | 3.91 µM | 1.62 µM | 3.01 µM | 1.1 µM | > 100 µM | 2.39 µM | 8.33 µM | 1.34 µM | 2.99 µM | 3.27 µM | 21.5 µM | 2.19 µM | 24 µM
4 | Cc1cccc(C(C)(C)C)c1NC(=O)CC1C(=O)Nc2ccccc2S1=O (centres undefined) |  |  |  | 40.9 µM |  |  |  | > 100 µM |  | > 100 µM |  | 69.2 µM |  | 67.6 µM |  |  |  | > 100 µM |  | > 100 µM
5 | O=[N+]([O-])c1ccc(Cc2nc3ccccc3s2)cc1 |  | > 100 µM |  | > 100 µM |  | > 100 µM |  | > 100 µM |  |  |  | > 100 µM |  | > 100 µM |  | > 100 µM |  | > 100 µM |  | > 100 µM
6 | N=C(c1ccccc1)N1CCCCC1 |  |  |  | > 100 µM |  | > 100 µM |  | > 100 µM |  | > 100 µM |  |  |  | > 100 µM |  | > 100 µM |  | > 100 µM |  | 
7 | OCCN(CO)CN(CN(CO)CCO)c1nc(N(CN(CO)CCO)CN(CO)CCO)nc(N(CN(CO)CCO)CN(CO)CCO)n1 |  |  |  |  | 1.42 ng/mL | 5.03 ng/mL | 1.21 ng/mL | 2.8 ng/mL |  |  | 1.51 ng/mL | 4.49 ng/mL | 1.57 ng/mL | 5.24 ng/mL |  |  | 1.35 ng/mL | 2.93 ng/mL | 0.55 ng/mL | 0.55 ng/mL
8 | COc1cc2c(cc1OC)-c1c(cnn1C1OC(COC(C)=O)C(OC(C)=O)C(OC(C)=O)C1OC(C)=O)CC2 (centres undefined) |  | > 100 µM |  | > 100 µM |  | > 100 µM |  | > 100 µM |  | > 100 µM |  | > 100 µM |  | > 100 µM |  |  |  | > 100 µM |  | > 57.3 µM
9 | CCOC(=O)c1cc2c(cc1Cl)SC(N(c1ccc(F)cc1)S(=O)(=O)c1ccc(OC)cc1)=NS2(=O)=O | 23 µM | 45.9 µM | 12.5 µM | 27.6 µM | 21.2 µM | 51.8 µM | 22.8 µM | 63.9 µM | 12.9 µM | 25.6 µM | 15.6 µM | 37.9 µM | 18.5 µM | 44 µM |  |  | 14.5 µM | 31.4 µM | 15 µM | 51.5 µM
